# Assay results published in PMC8722130 (Progress in biophysics and molecular biology, 2021).
# Legend:
# [1] = biological target: uracil DNA-glycosylase (UDG) (Homo sapiens, UniProt P13051); assay: co-crystal structure; assay type: binding
# [2] = biological target: human UDG (mitochondrial, 6xHis; XTAL Biostructures) (Homo sapiens, UniProt P13051-2 82-304); assay: thermal shift
# Chain of human UDG (mitochondrial, 6xHis; XTAL Biostructures) (P13051 91-313): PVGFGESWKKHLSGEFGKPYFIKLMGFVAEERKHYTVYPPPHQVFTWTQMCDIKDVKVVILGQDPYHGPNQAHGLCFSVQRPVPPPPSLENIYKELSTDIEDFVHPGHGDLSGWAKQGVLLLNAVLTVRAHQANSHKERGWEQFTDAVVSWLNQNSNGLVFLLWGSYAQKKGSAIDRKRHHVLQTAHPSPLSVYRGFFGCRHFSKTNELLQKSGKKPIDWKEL
# Chain of uracil DNA-glycosylase (UDG) (P13051 whole entry): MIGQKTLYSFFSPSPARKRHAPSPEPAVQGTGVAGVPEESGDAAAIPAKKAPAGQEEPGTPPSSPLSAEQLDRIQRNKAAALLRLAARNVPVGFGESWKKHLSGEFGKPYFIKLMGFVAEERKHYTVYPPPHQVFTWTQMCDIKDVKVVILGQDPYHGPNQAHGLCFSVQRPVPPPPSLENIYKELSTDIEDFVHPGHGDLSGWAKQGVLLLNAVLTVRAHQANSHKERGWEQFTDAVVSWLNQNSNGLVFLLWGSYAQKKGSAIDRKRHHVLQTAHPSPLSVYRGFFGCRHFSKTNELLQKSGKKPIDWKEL
Molecule,Kd [1] [nM],binding result [2]
O=C(O)C1=CC(=C(c2ccc(O)c(C(=O)O)c2)c2ccc(O)c(C(=O)O)c2)C=CC1=O [aurintricarboxylic acid],< 700,–
"GCACUUAAGAAUUGCAAUUCUUAAGUGC (structured_DNA, U in place of T (deoxyuridine, nine U:A pairs stated)) [uracil DNA hairpin]",–,binds
